# Active and inactive are the calls of the source. The rule behind the calls is not given here.
# System: CCRIS mutagenicity, Ames/micronucleus/aberration tests
# Test: CCRIS mutagenicity studies
# [1] = Test System: AMES SALMONELLA TYPHIMURIUM, Strain/Indicator: TA100, Metabolic Activation: NONE, Method: STANDARD PLATE
# [2] = Test System: AMES SALMONELLA TYPHIMURIUM, Strain/Indicator: TA1537, Metabolic Activation: NONE, Method: STANDARD PLATE
# [3] = Test System: AMES SALMONELLA TYPHIMURIUM, Strain/Indicator: TA98, Metabolic Activation: NONE
# [4] = Test System: AMES SALMONELLA TYPHIMURIUM, Strain/Indicator: TA100, Metabolic Activation: NONE
compound,measurement,setting,value
CCC(=O)Nc1snc2ccccc12,mutagenic call,[1],inactive; negative
same,mutagenic call,"Test System: AMES SALMONELLA TYPHIMURIUM, Strain/Indicator: TA100, Metabolic Activation: S-9, Method: STANDARD PLATE",inactive; negative
same,mutagenic call,[2],inactive; negative
same,mutagenic call,"Test System: AMES SALMONELLA TYPHIMURIUM, Strain/Indicator: TA1537, Metabolic Activation: S-9, Method: STANDARD PLATE",inactive; negative
CC(NCc1ccccc1)C(=O)NCc1ccccc1 (stereo not drawn),mutagenic call,[1],inactive; negative
CC(=O)OCC(=O)[C@@]1(OC(C)=O)CC[C@H]2[C@@H]3C[C@@H](F)C4=CC(=O)C(Br)=C[C@]4(C)[C@@]3(F)[C@@H](O)C[C@@]21C,mutagenic call,[3],inactive; negative
same,mutagenic call,"Test System: AMES SALMONELLA TYPHIMURIUM, Strain/Indicator: TA98, Metabolic Activation: S-9",inactive; negative
same,mutagenic call,[4],inactive; negative
same,mutagenic call,"Test System: AMES SALMONELLA TYPHIMURIUM, Strain/Indicator: TA100, Metabolic Activation: S-9",inactive; negative
same,mutagenic call,"Test System: AMES SALMONELLA TYPHIMURIUM, Strain/Indicator: TA1535, Metabolic Activation: NONE",inactive; negative
same,mutagenic call,"Test System: AMES SALMONELLA TYPHIMURIUM, Strain/Indicator: TA1535, Metabolic Activation: S-9",inactive; negative
same,mutagenic call,"Test System: AMES SALMONELLA TYPHIMURIUM, Strain/Indicator: TA1537, Metabolic Activation: NONE",inactive; negative
same,mutagenic call,"Test System: AMES SALMONELLA TYPHIMURIUM, Strain/Indicator: TA1537, Metabolic Activation: S-9",inactive; negative
same,mutagenic call,"Test System: AMES SALMONELLA TYPHIMURIUM, Strain/Indicator: TA1538, Metabolic Activation: NONE",inactive; negative
same,mutagenic call,"Test System: E. COLI, Strain/Indicator: WP2, Metabolic Activation: NONE",inactive; negative
same,mutagenic call,"Test System: E. COLI, Strain/Indicator: WP2, Metabolic Activation: S-9",inactive; negative
same,mutagenic call,"Test System: E. COLI, Strain/Indicator: WP2 UVRA, Metabolic Activation: NONE",inactive; negative
same,mutagenic call,"Test System: E. COLI, Strain/Indicator: WP2 UVRA, Metabolic Activation: S-9",inactive; negative
O=C1C[C@H](O)[C@@H]2c3c(ccc(O)c31)-c1ccc(O)c3c1[C@@]2(O)CCC3=O,mutagenic call,"Test System: AMES SALMONELLA TYPHIMURIUM, Strain/Indicator: TA98, Metabolic Activation: RAT LIVER S-9, AROCLOR 1254, Method: STANDARD PLATE",active; positive
same,mutagenic call,"Test System: AMES SALMONELLA TYPHIMURIUM, Strain/Indicator: TA98, Metabolic Activation: RAT, LIVER, S-9, AROCLOR 1254, Method: STANDARD PLATE",active; positive
same,mutagenic call,"Test System: AMES SALMONELLA TYPHIMURIUM, Strain/Indicator: TA100, Metabolic Activation: RAT LIVER S-9, AROCLOR 1254, Method: STANDARD PLATE",inactive; negative
same,mutagenic call,"Test System: AMES SALMONELLA TYPHIMURIUM, Strain/Indicator: TA100, Metabolic Activation: RAT, LIVER, S-9, AROCLOR 1254, Method: STANDARD PLATE",active; positive
same,mutagenic call,[2],active; positive
same,mutagenic call,"Test System: AMES SALMONELLA TYPHIMURIUM, Strain/Indicator: TA1537, Metabolic Activation: RAT, LIVER, S-9, AROCLOR 1254, Method: STANDARD PLATE",active; positive
same,mutagenic call,"Test System: Ames Salmonella typhimurium, Strain/Indicator: TA97, Metabolic Activation: None, Method: Standard plate",inactive; negative. nitrosation increased mutagenicity
same,mutagenic call,"Test System: Ames Salmonella typhimurium, Strain/Indicator: TA97, Metabolic Activation: Rat, Liver, S-9, Aroclor 1254 (10%), Method: Standard plate",inactive; negative. nitrosation increased mutagenicity
same,mutagenic call,"Test System: Ames Salmonella typhimurium, Strain/Indicator: TA102, Metabolic Activation: None, Method: Standard plate",active; positive. nitrosation yielded mutagenic product
same,mutagenic call,"Test System: Ames Salmonella typhimurium, Strain/Indicator: TA102, Metabolic Activation: Rat, Liver, S-9, Aroclor 1254 (10%), Method: Standard plate",active; positive. nitrosation yielded mutagenic product
same,mutagenic call,"Test System: Ames Salmonella typhimurium, Strain/Indicator: TA104, Metabolic Activation: None, Method: Standard plate",inactive; negative. nitrosation increased mutagenicity
same,mutagenic call,"Test System: Ames Salmonella typhimurium, Strain/Indicator: TA104, Metabolic Activation: Rat, Liver, S-9, Aroclor 1254 (10%), Method: Standard plate",inactive; negative. nitrosation increased mutagenicity
same,mutagenic call,"Test System: Chinese hamster fibroblasts, Strain/Indicator: V79 (Hprt)/6-thioguanine, Metabolic Activation: None, Method: Standard plate",inactive; negative (positive in presence of nitrosating medium_
same,mutagenic call,"Test System: Rat hepatoma cells, Strain/Indicator: H4IIE (Hprt/6-thioguanine), Metabolic Activation: None, Method: Standard plate",inactive; negative (positive in presence of nitrosating medium)
O=[N+]([O-])c1ccc2c(c1)CCc1cc3c(cc1-2)CCc1ccccc1-3,mutagenic call,"Test System: AMES SALMONELLA TYPHIMURIUM, Strain/Indicator: TA98(1,8-DNP6), Metabolic Activation: NONE",active; positive
same,mutagenic call,"Test System: AMES SALMONELLA TYPHIMURIUM, Strain/Indicator: TA98(1,8-DNP6), Metabolic Activation: RAT, LIVER, S-9, AROCLOR 1254",active; positive
same,mutagenic call,"Test System: AMES SALMONELLA TYPHIMURIUM, Strain/Indicator: TA98(NR), Metabolic Activation: NONE",active; positive
same,mutagenic call,"Test System: AMES SALMONELLA TYPHIMURIUM, Strain/Indicator: TA98(NR), Metabolic Activation: RAT, LIVER, S-9, AROCLOR 1254",active; positive
same,mutagenic call,[3],active; positive
same,mutagenic call,"Test System: AMES SALMONELLA TYPHIMURIUM, Strain/Indicator: TA98, Metabolic Activation: RAT, LIVER, S-9, AROCLOR 1254",active; positive
same,mutagenic call,"Test System: AMES SALMONELLA TYPHIMURIUM, Strain/Indicator: TA100(NR), Metabolic Activation: NONE",inactive; negative
same,mutagenic call,"Test System: AMES SALMONELLA TYPHIMURIUM, Strain/Indicator: TA100(NR), Metabolic Activation: RAT, LIVER, S-9, AROCLOR 1254",active; positive
same,mutagenic call,[4],active; positive
same,mutagenic call,"Test System: AMES SALMONELLA TYPHIMURIUM, Strain/Indicator: TA100, Metabolic Activation: RAT, LIVER, S-9, AROCLOR 1254",active; positive
same,mutagenic call,"Test System: AMES SALMONELLA TYPHIMURIUM, Strain/Indicator: TA104, Metabolic Activation: NONE",active; positive
same,mutagenic call,"Test System: AMES SALMONELLA TYPHIMURIUM, Strain/Indicator: TA104, Metabolic Activation: RAT, LIVER, S-9, AROCLOR 1254",active; positive
O=P(O)(O)OC(CO)CO,mutagenic call,"Test System: AMES SALMONELLA TYPHIMURIUM, Strain/Indicator: TA97, Metabolic Activation: NONE, Method: PREINCUBATION",inactive; negative
same,mutagenic call,"Test System: AMES SALMONELLA TYPHIMURIUM, Strain/Indicator: TA97, Metabolic Activation: RAT, LIVER, S-9, AROCLOR 1254, Method: PREINCUBATION",inactive; negative
same,mutagenic call,"Test System: AMES SALMONELLA TYPHIMURIUM, Strain/Indicator: TA102, Metabolic Activation: NONE, Method: PREINCUBATION",inactive; negative
same,mutagenic call,"Test System: AMES SALMONELLA TYPHIMURIUM, Strain/Indicator: TA102, Metabolic Activation: RAT, LIVER, S-9, AROCLOR 1254, Method: PREINCUBATION",inactive; negative
